According to patent US20230212170A1, “INHIBITORS OF KRAS G12C PROTEIN AND USES THEREOF” (SHANGHAI ANTENGENE CORPORATION LIMITED, priority 2020, published 2023):
Where two headings read alike, the source gives them in different places.

Legend:
MIA PaCa-2 = test: Tumor cell anti-proliferation assay (CTG assay), MIA PaCa-2; type: cell-based; details: read-out: IC50 MIA PaCa-2
Experimental: (§1) Assay 3: Tumor Cell Anti-Proliferation Assay (CTG Assay)
(§2) Tested tumor cell lines (MIA PaCa-2, NCI-H358, and A549) were seeded to the 96-well plate for overnight, then cells were treated with the test compound at 9 serially diluted concentrations in triplicate. After 3-days incubation with the test compound, the CTG assay was performed to evaluate the IC50. The 3 cell lines were tested in the same manner. Cisplatin were used as the positive control.
(§3) Day −1: Cell Plating for Cell Lines
(§4) 1. Adjust the cell concentration to the appropriated number with the medium, and for each well of a 96-well plate, add 90 μl cell suspensions (Cell concentration will be adjusted according to the data base or density optimization assay). 2. Incubate the plates for overnight in humidified incubator at […] with 5% CO2.
(§5) Day 0: T0 Plate Reading and Compound Treatment
(§6) 3. Add 10 μL culture medium to each well of plate A for T0 reading.
(§7) 4. Equilibrate the plate and its content at RT for approximately 30 min.
(§8) 5. Add 50 μL CellTiter-Glo® Reagent to each well for T0 reading.
(§9) 6. Mix contents for 2 minutes on an orbital shaker to facilitate cell lysis.
(§10) 7. Allow the plate to incubate at room temperature for 10 minutes to stabilize the luminescent signal. Note: Uneven luminescent signal within standard plates can be caused by temperature gradients, uneven seeding of cells or edge effects in multiwall plates.
(§11) 8. Place a black BackSeal sticker to the bottom of each plate.
(§12) 9. Record luminescence using an Envision Multi Label Reader.
(§13) 10. Dilute the test compound and the positive control (Cisplatin). Add 10 μL of 10× test compound working solutions into the corresponding wells. Incubate the test plates in the humidified incubator at 37° C. with 5% Co2.
(§14) Day 3: Plate Reading for 3-Day Assay
(§15) 11. Monitor under the microscope to make sure that the cells in control wells are healthy.
(§16) 12. After three days incubation, add 50 μL CellTiter-Glo® Reagent to each well.
(§17) 13. Mix contents for 2 minutes on an orbital shaker to facilitate cell lysis.
(§18) 14. Allow the plate to incubate at room temperature for 10 minutes to stabilize the luminescent signal.
(§19) 15. Note: Uneven luminescent signal within standard plates can be caused by temperature gradients, uneven seeding of cells or edge effects in multiwall plates.
(§20) 16. Place a black BackSeal sticker to the bottom of each plate.
(§21) 17. Record luminescence using an Envision Multi Label Reader.
(§22) In order to calculate IC50, a dose-response curve was fitted using nonlinear regression model with a sigmoidal dose response. The formula of the surviving rate is shown below, and the IC50 was automatically produced by GraphPad Prism 5.0.
(§23) The surviving rate […]=(LumTest compound−LumMedium control)/(LumNone treated-LumMedium control)×100%.
(§24) LumNone treated-LumMedium control is set as 100% o and LumMedium control is set as […]. T0 value will be presented as percentage of LumNone treated.

KRAS G12C [1] = target: T1, KRAS G12C (Homo sapiens, UniProt P01116, G12C); test: KRAS GDP FI assay; type: biochemical; details: kinetic reading Ex580/Em620 for 120 min
Text: Assay 2: KRAS GDP FI Assay
1. Prepare compound dilution plate.
2. Transfer Inhibitor/DMSO to assay plate by Echo.
3. Prepare 1× assay buffer.
4. Prepare KRAS G12C mix & SOS1 mix & GTP mix & detection reagent mix.
5. Add KRAS G12C mix, SOS1 mix, GTP mix.
6. Add detection reagent mix to assay plate.

NCI-H358 = test: Tumor cell anti-proliferation assay (CTG assay), NCI-H358; type: cell-based; details: read-out: IC50 NCI-H358
Experimental: as §1, §2, §3, §4, §5, §6, §7, §8, §9, §10, §11, §12, §13, §14, §15, §16, §17, §18, §19, §20, §21, §22, §23, §24

KRAS G12C [2] = target: T1, KRAS G12C; test: KRAS G12C nucleotide exchange assay (SOS1-mediated, mant-GDP fluorescence); type: biochemical; set-up: KRas(1-169) G12C protein; details: 15 min pre-incubation
Experimental: Assay 1: KRAS G12C Nucleotide Exchange Assay
1×Loading buffer: 20 mM HEPES, pH 7.5, 50 mM NaCl, 0.5 mM MgCl2, 1 mM DTT, 5 mM EDTA
1×Equilibration buffer: 20 mM HEPES, pH 7.5, 150 mM NaCl, 1 mM MgCl2, 1 mM DTT
1×Assay buffer: 20 mM HEPES, pH 7.5, 150 mM NaCl, 1 mM MgCl2, 0.01% Tween-20, 1 mM DTT
2. Load Mant GDP to KRAS G12C:
a. A mixed solution of 100 µL mant GDP and KRAS G12C was prepared with 1×loading buffer: 60 um KRAS G12C, 600 um […], incubated at room temperature for 60 minutes, and the reaction was carried out in dark conditions.
b. Add 1 uL 1 m MgCl2 (final concentration 10 mm) to stop the reaction, mix the solution upside down in the centrifuge tube, centrifugate for 3-5 seconds, and incubate at room temperature for 30 minutes.
c. At the same time of incubation for 30 minutes, balance nap-5 column with 10 ml ix equipment buffer until no liquid drops.
d. Drop the mixed solution of 100 uL mant GDP and KRAS G12C into the center of nap-5 column. After the sample completely enters nap-5 column, add 400 µL 1× equipment buffer until no liquid drops.
e. Add 500 ul 1× equipment buffer for elution and collect eluant.
f. Determination of KRAS G12C mant GDP with Bradford protein quantitative Kit.
3. Nucleotide Exchange Experiment:
a. Transfer 50 NL DMSO/compound to 384 well plate with echo550.
b. 10 uL enzyme mix was added into 384 pore plate and incubated with DMSO/compound for 15 min.
c. Initial reaction with 10 µL Sos1/GTP mix.
d. Immediately after reaction, read ex360/em440 fluorescence value in kinetic mode with Nivo.
a. Use Graphpad software to process data and draw pictures.
b. K value is obtained in Graphpad software by fitting One phase experimental deck model.
c. Z′=1-3*(SdKmax+SdKmin)/(AveKmax−AveKmin)
d. In % is calculated by the following formula:
Inh%=(Kmax−Ksample)/(Kmax−Kmin)*100

[3] = MIA PaCa-2, 3-days incubation, CTG
[4] = NCI-H358, 3-days incubation, CTG
[5] = Homo sapiens, MIA PaCa-2, 72 h, MIA PaCa-2, 3-days incubation, CTG

Molecule	IC50 (KRAS G12C [1])	IC50 (MIA PaCa-2; [5])	other results
2-((S)-1-acryloyl-4-(7-(8-chloronaphthalen-1-yl)-2-(((2S,4R)-4-fluoro-1-methylpyrrolidin-2-yl) [Compound 25-a]	–	–	IC50 (MIA PaCa-2; [3]): > 10 nM
2-((S)-1-acryloyl-4-(7-(8-chloronaphthalen-1-yl)-2-(((2S,4R)-4-fluoro-1-methylpyrrolidin-2-yl) [Compound 25-b]	37 nM	–	IC50 (MIA PaCa-2; [3]): 1120 nM
C=CC(=O)N1CCN(c2nc(OC[C@@H]3CCCN3C)nc3c(=O)n(-c4cccc5cccc(Cl)c45)c(C(F)(F)F)nc23)[C@@H](C)C1 (single isomer, unassigned) [Compound 24-a]	–	–	IC50 (NCI-H358; [4]): 407 nM
C=CC(=O)N1CCN(c2nc(OC[C@@H]3CCCN3C)nc3c(=O)n(-c4cccc5cccc(Cl)c45)c(C(F)(F)F)nc23)[C@@H](C)C1 (single isomer, unassigned) [Compound 24-b]	–	–	IC50 (NCI-H358; [4]): 1460 nM
C=CC(=O)N1CCN(c2nc(OC[C@@H]3CCCN3C)nc3c(=O)n(-c4cccc5cccc(Cl)c45)c(C)nc23)[C@@H](C)C1 (single isomer, unassigned) [Compound 26-a]	–	4380 nM	–
C=CC(=O)N1CCN(c2nc(OC[C@@H]3CCCN3C)nc3c(=O)n(-c4cccc5cccc(Cl)c45)c(C)nc23)[C@@H](C)C1 (single isomer, unassigned) [Compound 26-b]	1500 nM	–	IC50 (MIA PaCa-2; [3]): 2890 nM
C=CC(=O)N1CCN(c2nc(OC[C@@H]3CCCN3C)nc3c(=O)n(-c4cccc5cccc(Cl)c45)c(CC)nc23)[C@@H](C)C1 (single isomer, unassigned) [Compound 27-a]	–	2890 nM	–
C=CC(=O)N1CCN(c2nc(OC[C@@H]3CCCN3C)nc3c(=O)n(-c4cccc5cccc(Cl)c45)c(CC)nc23)[C@@H](C)C1 (single isomer, unassigned) [Compound 27-b]	900 nM	–	IC50 (MIA PaCa-2; [3]): 2690 nM
C=CC(=O)N1CCN(c2nc(OC[C@@H]3CCCN3C)nc3c(=O)n(-c4cccc5cccc(Cl)c45)c(C(F)(F)F)nc23)C[C@@H]1CC#N (single isomer, unassigned) [Example 32-a]	–	3720 nM	–
C=CC(=O)N1CCN(c2nc(OC[C@@H]3CCCN3C)nc3c(=O)n(-c4cccc5cccc(Cl)c45)c(C(F)(F)F)nc23)C[C@@H]1CC#N (single isomer, unassigned) [Example 32-b]	83 nM	–	IC50 (MIA PaCa-2; [3]): 188 nM
C=CC(=O)N1CCN(c2nc(OC[C@@H]3C[C@@H](F)CN3C)nc3c(=O)n(-c4cccc5cccc(Cl)c45)c(C(F)(F)F)nc23)[C@@H](C)C1 (single isomer, unassigned) [Example 36-a]	155 nM	–	–
C=CC(=O)N1CCN(c2nc(OC[C@@H]3CCCN3C)nc3c(=O)n(-c4ccccc4F)c(C(F)(F)F)nc23)[C@@H](C)C1 (single isomer, unassigned) [Example 40-b]	405 nM	–	–
C=CC(=O)N1CCN(c2nc(OC[C@@H]3CCCN3C)nc3c(=O)n(-c4cccc5cccc(Cl)c45)c(C(F)(F)F)nc23)[C@@H](C)C1 [Compound 24, 8-((S)-4-acryloyl-2-methylpiperazin-1-yl)-3-(8-chloronaphthalen-1-yl)-6-(((S)-1-methylpyrrolidin-2-yl)methoxy)-2-(trifluoromethyl)pyrimido[5,4-d] pyrimidin-4(3H)-one]	132 nM	480 nM	–
C=CC(=O)N1C[C@H](C)N(c2nc(OC[C@@H]3CCCN3C)nc3c(=O)n(-c4cccc5cccc(Cl)c45)c(C)nc23)[C@@H](C)C1 [Compound 28, 8-((2S,6S)-4-acryloyl-2,6-dimethylpiperazin-1-yl)-3-(8-chloronaphthalen-1-yl)-2-methyl-6-(((S)-1-methylpyrrolidin-2-yl)methoxy)pyrimido[5,4-d]pyrimidin-4(3H)-one]	190 nM	1500 nM	–
C=CC(=O)N1CCN(c2nc(OC[C@@H]3CCCN3C)nc3c(=O)n(-c4cccc5ccccc45)c(C)nc23)CC1 [Example 1, (S)-8-(4-acryloylpiperazin-1-yl)-2-methyl-6-((1-methylpyrrolidin-2-yl)methoxy)-3-(naphthalen-1-yl)pyrimido[5,4-d]pyrimidin-4(3H)-one]	–	–	IC50 (KRAS G12C [2]): 35400 nM
C=CC(=O)N1CCN(c2nc(OC[C@@H]3CCCN3C)nc3c2CCCC(c2c(C)ccc4[nH]ncc24)C3)C[C@@H]1CC#N (stereo partly drawn) [Example 30, 2-((2S)-1-acryloyl-4-(8-(5-methyl-1H-indazol-4-yl)-2-(((S)-1-methylpyrrolidin-2-yl)methoxy)-6,7,8,9-tetrahydro-5H-cyclohepta[d]pyrimidin-4-yl)piperazin-2-yl)acetonitrile]	124 nM	72.7 nM	–
C=CC(=O)N1CCN(c2nc(OC[C@@H]3CCCN3C)nc3c(=O)n(-c4cccc5cccc(F)c45)c(C(F)(F)F)nc23)C[C@@H]1CC#N [Example 37, 2-((S)-1-acryloyl-4-(7-(8-fluoronaphthalen-1-yl)-2-(((S)-1-methylpyrrolidin-2-yl)methoxy)-8-oxo-6-(trifluoromethyl)-7,8-dihydropyrimido[5,4-d]pyrimidin-4-yl)piperazin-2-yl) acetonitrile]	178 nM	–	–
C=CC(=O)N1CCN(c2nc(OC[C@@H]3CCCN3C)nc3c(=O)n(-c4c(F)cccc4OC)c(C(F)(F)F)nc23)C[C@@H]1CC#N [Example 38, 2-((S)-1-acryloyl-4-(7-(2-fluoro-6-methoxyphenyl)-2-(((S)-1-methylpyrrolidin-2-yl)methoxy)-8-oxo-6-(trifluoromethyl)-7,8-dihydropyrimido[5,4-d]pyrimidin-4-yl)piperazin-2-yl)acetonitrile]	494 nM	–	–
C=CC(=O)N1CCN(c2nc(OC[C@@H]3CCCN3C)nc3c(=O)n(-c4cccc5cccc(C)c45)c(-c4ccccc4)nc23)C[C@@H]1CC#N [Example 39, 2-((S)-1-acryloyl-4-(7-(8-methylnaphthalen-1-yl)-2-(((S)-1-methylpyrrolidin-2-yl)methoxy)-8-oxo-6-phenyl-7,8-dihydropyrimido[5,4-d]pyrimidin-4-yl)piperazin-2-yl)acetonitrile]	364 nM	–	–
C=CC(=O)N1C[C@H](C)N(c2nc(OC[C@@H]3CCCN3C)nc3c(=O)n(-c4cn(C)c5ccccc45)c(C(F)(F)F)nc23)[C@@H](C)C1 [Example 43]	–	–	IC50 (MIA PaCa-2; Homo sapiens, MIA PaCa-2, 72 h): 766 nM; IC50 (NCI-H358; Homo sapiens, NCI-H358, 72 h): 257 nM
